Results reported in PubChem BioAssay (NCI).
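Compound exposure: 48 hours, 5 concentrations, 96-well plates. The concentration for 50% growth inhibition is given as GI50. TGI: total growth inhibition.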

Tests used:
Assay in all cases: NCI tumour cell line growth inhibition, 48 h
SF-268 CNS = system: SF-268 CNS
SF-539 CNS = system: SF-539 CNS
OVCAR-4 ovarian = system: OVCAR-4 ovarian
OVCAR-5 ovarian = system: OVCAR-5 ovarian
T-47D breast = system: T-47D breast
HCT-15 colon = system: HCT-15 colon
CCRF-CEM leukemia = system: CCRF-CEM leukemia
NCI-H23 lung = system: NCI-H23 lung

| Structure (SMILES) | GI50 (SF-268 CNS) [µM] | TGI (SF-268 CNS) [µM] | GI50 (SF-539 CNS) [µM] | TGI (SF-539 CNS) [µM] | GI50 (OVCAR-4 ovarian) [µM] | TGI (OVCAR-4 ovarian) [µM] | GI50 (OVCAR-5 ovarian) [µM] | TGI (OVCAR-5 ovarian) [µM] | GI50 (T-47D breast) [µM] | TGI (T-47D breast) [µM] | GI50 (HCT-15 colon) [µM] | TGI (HCT-15 colon) [µM] | GI50 (CCRF-CEM leukemia) [µM] | TGI (CCRF-CEM leukemia) [µM] | GI50 (NCI-H23 lung) [µM] | TGI (NCI-H23 lung) [µM] |
| --- | --- | --- | --- | --- | --- | --- | --- | --- | --- | --- | --- | --- | --- | --- | --- | --- |
| O=C1Nc2cc(Cl)ccc2Oc2cc(Oc3ccccc3)ccc21 | 6.33 | 31.6 | 8.53 | 40 | 6.52 | 23.8 | 8.69 | > 100 | 4.79 | 36.8 | 3.84 | > 100 | 3.24 | > 100 | 3.78 | 29.9 |
| COc1ccc2nc3cccc([N+](=O)[O-])c3c(NCCN(CCO)CCO)c2c1 | 0.0332 | 0.234 | 0.0893 | 0.27 | 0.0222 | 0.0685 | 0.0291 | 0.138 | 0.0913 | 1.01 | 0.157 | 60.8 | 0.0326 | 0.247 | 0.0202 | 0.048 |
| O=C(CSc1nc2ccc([N+](=O)[O-])cc2[nH]1)Nc1cccc(Cl)c1 | 3.04 | 21.8 | 3.02 | 11.7 | 2.13 | 22.3 | 2.7 | 13.4 | 1.55 | 18.9 | 3.06 | 15 | 3.1 | > 100 | 2.26 | 9.3 |
| CCOC(=O)c1ccc2c(c1)[n+](=O)c(C(=O)c1ccc3ccccc3c1)c(C(F)(F)F)n2[O-] | 1.15 | 2.36 | 1.56 | 2.9 | 0.261 | 0.848 | 1.3 | 2.57 | 0.86 | 2.32 | 1.49 | 3.3 | 0.4 | 2.29 | 0.496 | 1.79 |
| C[As](C)Sc1ccnc(S[As](C)C)n1 | 7.44 | > 39.7 | 2.77 | > 34.8 | 3.44 | 36.3 | 19.6 | > 48.4 | 22.9 | > 100 | 0.928 | 14.7 | 1.34 | – | 6.79 | > 32 |
| COc1ccc(S(=O)(=O)N2CCN(C(=O)OCc3ccccc3)CC2C(=O)NO)cc1 (centres undefined) | > 25 | > 25 | > 25 | > 25 | > 25 | > 25 | > 25 | > 25 | 12.1 | > 25 | > 25 | > 25 | 6.2 | > 25 | > 25 | > 25 |
| Cc1cc(Cl)ccc1NC(=O)/C(Cl)=C(/Cl)C(=O)O | – | > 100 | – | 50.9 | – | – | – | 36.2 | – | 57.2 | – | 37.9 | – | > 100 | – | 67.8 |
| CCCCCCCCCCCCOC1C(CNC(=O)C2OC3OC(C)(C)OC3C2NC(=O)CN2CCN(c3ccccn3)CC2)OC2OC(C)(C)OC21 (centres undefined) | 2.26 | 6.31 | 1.93 | 3.44 | 2.52 | 7.7 | 4.11 | 8.35 | 2.81 | 8.61 | 1.76 | 3.31 | 2.5 | 5.5 | 4.16 | 9.1 |
| CSC(=S)N/N=C/c1ccccc1 | – | > 100 | – | > 100 | – | 98.5 | – | > 100 | – | 72.1 | – | > 100 | – | > 100 | – | > 100 |
| C=C1C(=O)O[C@H]2[C@H]1CC/C(C=Nc1ccc(C(F)(F)F)cc1N)=C\CC[C@@]1(C)O[C@@H]21 | 7.6 | 21.1 | 3.94 | 15.4 | 4.44 | 20.6 | 13.2 | 31.7 | 3.31 | 22.1 | 3.48 | 13.6 | 3.16 | 11.2 | 10.7 | 25.7 |
| COC1OCC(OS(=O)(=O)c2ccc(C)cc2)C(OC(=O)c2ccccc2)C1OC(=O)c1ccccc1 (centres undefined) | 9.75 | > 100 | 5 | > 100 | 9.24 | > 100 | > 100 | > 100 | 3.11 | > 100 | 5.3 | > 100 | 4.74 | > 100 | > 100 | > 100 |
| CCc1ccc(CCC(=O)Nc2ncc(Cc3cc(Cl)ccc3Cl)s2)o1 | 3.6 | > 50 | 1.26 | 4.1 | 1.78 | 12.6 | 2.21 | > 50 | 1.86 | > 50 | 0.508 | > 50 | 0.843 | > 50 | 2.49 | > 50 |
| CC1(C)Cc2cccc(OCC(O)CN3CCN(c4ccc(F)cc4)CC3)c2O1 (centres undefined) | 18 | > 50 | 13 | 27.3 | 13.3 | > 50 | 22.1 | > 50 | – | – | 13.5 | > 50 | – | – | 19.1 | > 50 |
| COc1ccc(-c2cc(-c3ccc(O)cc3)nc3nc(=S)[nH]c(N)c23)cc1 | 23.4 | 79.2 | 2.46 | 17.1 | 25.3 | > 100 | 32 | 74.3 | 14.3 | 80.1 | 19.6 | 58 | – | – | 25 | 50.1 |
| CCOc1cc(C=O)c2c(ccc3ccc(OC)c(OC)c32)c1OC | – | > 100 | – | – | – | > 100 | – | > 100 | – | > 100 | – | > 100 | – | > 100 | – | > 100 |
| CN(C)CCCNC(=O)c1cc(NC(=O)CCNC(=O)c2ccc3c(c2)C(=O)c2ccccc2C3=O)cn1C | 71 | > 100 | > 100 | > 100 | – | – | > 100 | > 100 | 32.5 | 75.3 | – | – | 64.1 | > 100 | > 100 | > 100 |
